Several values for one entry are separate records, joined by “and”; a condition that tells them apart may be missing. Equal values may be shown once.
What was measured:
[1] = target: T1, TTR (Canis lupus familiaris, UniProt A0A8I3NFK0); experiment: 7-day repeat oral dosing in dogs, TTR occupancy by FPE; assay type: in vivo, beagle dog
T1 construct: from tissue; host or cells: serum of orally dosed beagle dogs
Description: FPE assay for binding TTR in buffer and human or dog serum. […] The FPE probe is a thioester TTR ligand that is not fluorescent by itself, however upon binding to the T4 binding site of TTR it covalently modifies lysine 15 (K15), creating a fluorescent conjugate. Ligands that bind to the T4 site of TTR will decrease FPE probe binding as observed by lower fluorescence. The FPE assay was also adapted for use with dog serum. FPE with TTR in buffer: An aliquot of 98 μL of TTR in PBS (pH 7.4, final concentration: 2.5 μM) was mixed with 1 μL of test compounds (2.5 μM) and 1 μL of FPE probe (0.18 mM stock solution in DMSO: final concentration: 1.8 μM). The change in fluorescence (λex=328 nm and λem=384 nm) were monitored using a microplate spectrophotometer reader (SpectraMax M5) for 6 hr at rt. […] The change in fluorescence (λex=328 nm and λem=384 nm) were monitored using a microplate spectrophotometer reader (SpectraMax M5) for 6 hr at rt.
Blood (approximately 1.5 mL) was collected from a jugular vein into serum separator tubes on study day 1 (predose D1), pre-dose study day 7 (predose D7), and at 1 hr post-dose study day 7 (postdose D7). These serum samples were analyzed for their TTR occupancy using the FPE assay described above.

[2] = target: T2, tetrameric TTR (Homo sapiens, UniProt P02766); experiment: Fluorescent Probe Exclusion (FPE) assay on serum of Phase 1 subjects; assay type: in vivo; parameters: from tissue; host or cells: serum / blood plasma of dosed healthy human volunteers; settings: single dose of 300 mg and 800 mg
[3] = target: T2, tetrameric TTR; experiment: Phase 2 study, fluorescence probe (FPE) assay ex vivo; assay type: in vivo; parameters: monitoring TTR serum concentrations in trial participants; from tissue; host or cells: serum / plasma of ATTR-CM patients
Description: (§1) Aliquots of each serum sample are plated in 96 well plates. The fluorescence changes (λex=328 nm and λem=384 nm) after addition of probe are monitored every 15 min using a fluorescent capable microplate for 6 hr at RT.
(§2) The phase 2 clinical study was performed essentially as described in Example 3. A total of 49 patents were included instead of 45: 16 receiving 400 mg bid; 16 receiving 800 mg bid; and 17 receiving placebo.
(§3) TTR stabilization was measured ex vivo using the FPE and Western blot assays described at the beginning of the examples section. TTR stabilization was measured in vivo by monitoring TTR serum concentrations in trial participants.

[4] = target: T3, tetrameric TTR (Homo sapiens, UniProt P02766, V50M); experiment: as above; assay type: in vivo; settings: individual with V30M TTR mutation, 800 mg b.i.d.
T3 construct: monitoring TTR serum concentrations in trial participants; from tissue; host or cells: serum / plasma of ATTR-CM patients
Description: as §1, §2, §3

[5] = Phase 2 study, tolerability in ATTR-CM patients; assay type: in vivo, human; settings: symptomatic ATTR-CM patients, 28 days
Description: (§4) Screening and randomization will be followed by a 28-day blinded, placebo-controlled treatment period. Approximately 45 subjects are planned to enroll in the Phase 2 study.
as §2

[6] = pKa values of stabilizers; assay type: physicochemical; settings: carboxylic acid group
[7] = target: T4, TTR (Macaca fascicularis, UniProt Q8HXW1); experiment: Single dose study in monkeys, FPE assay on serum; assay type: in vivo, cynomolgus monkey
T4 construct: from tissue; host or cells: serum of dosed male cynomolgus monkeys
Description: There was a washout period of two weeks between the two phases. Blood samples were collected at pre-dose and at approximately 0.083 (IV only), 0.25, 0.5, 1, 2, 4, 8, 12, 24, 48, 72 and 96 hours post-dose. Plasma samples were assayed for AG10 and AG10 acylglucuronide and serum was tested in FPE assay.

[8] = target: T5, TTR (Homo sapiens, UniProt P02766); experiment: Isothermal titration calorimetry (ITC) with TTR in buffer; settings: 25° C.
Description: (§6) Isothermal Titration Calorimetry (ITC). Binding experiments were performed using MicroCal PEAQ-ITC at 25° C. […] 19 injections of ligand (2.0 μL each) were injected into the ITC cell (at 25° C.) to the point that TTR was fully saturated with ligand. Calorimetric data were plotted and fitted using the standard single-site binding model.

[9] = Population PK analysis, effect of disease state and diuretics; assay type: in vivo, human
Description: Thus, the final model retained disease state on the central volume of distribution.
Of the 17 subjects who were on placebo, 14 were on furosemide or torsemide.

[10] = target: T3, tetrameric TTR; experiment: Phase 2 study, Western blot of tetrameric TTR ex vivo; assay type: in vivo; settings: individual with V30M TTR mutation, 800 mg b.i.d.
Description: Blood plasma samples from the subject are diluted with acidification buffer (sodium acetate, KCl, EDTA, DTT, pH about 4.0) for both the 0 and 72 hour time point. Time 0 hr samples are directly cross-linked with glutaraldehyde, and then quenched. 72 hr samples are incubated at room temperature for 72 hr and then cross-linked and quenched by the same protocol. All samples are then denatured by adding SDS gel loading buffer and boiled prior to gel loading. Each sample is separated in SDS-PAGE gels and analyzed by immunoblotting using anti-TTR antiserum (Polyclonal Rabbit Anti-Human Prealbumin. DAKO Cat# A0002). The density of all TTR bands are quantified using infrared LICOR imaging system or Fluorescence Imaging system and reported. Normalization by IgG band using LICOR 925-32232 or Invitrogen 84546.

[11] = target: T6, TTR (Homo sapiens, UniProt P02766, V50M); experiment: Phase 2 study in ATTR-CM patients, serum TTR concentration (ARUP Prealbumin assay); assay type: in vivo; settings: 800 mg b.i.d., V30M
T6 construct: monitoring TTR serum concentrations in trial participants; from tissue; host or cells: serum / plasma of ATTR-CM patients
Description: as §4
(§5) An ARUP Prealbumin assay was also used to analyze TTR blood serum concentration in the MAD cohorts tested. ARUP analyzes samples for prealbumin using the prealbumin reagent kit provided by Roche Diagnostics and run on the Roche Diagnostics c702 module. Lowest reportable limit is 3 mg/dL.
as §2, §3

[12] = tested on: TTR; experiment: as above; assay type: in vivo, human; settings: for Blood Serum TTR Concentration, Average Change: V122I; for Blood Serum TTR Concentration, Average Change (baseline to day 28): all genotypes, ATTR-CM patients
Description: as §4, §5, §2, §3

[13] = target: T7, TTR in human serum (Homo sapiens, UniProt P02766); experiment: FPE assay in human serum; assay type: binding; settings: whole human serum, FPE concentration-effect
T7 construct: pooled human serum (prepared from human male AB plasma, Sigma; catalog no; H4522; TTR concentration 5 μM); tissue Sigma H4522; host or cells: pooled human serum from human male AB plasma
Description: FPE assay for binding TTR in buffer and human or dog serum. […] The FPE probe is a thioester TTR ligand that is not fluorescent by itself, however upon binding to the T4 binding site of TTR it covalently modifies lysine 15 (K15), creating a fluorescent conjugate. Ligands that bind to the T4 site of TTR will decrease FPE probe binding as observed by lower fluorescence. […] The change in fluorescence (λex=328 nm and λem=384 nm) were monitored using a microplate spectrophotometer reader (SpectraMax M5) for 6 hr at rt. […] The change in fluorescence (λex=328 nm and λem=384 nm) were monitored using a microplate spectrophotometer reader (SpectraMax M5) for 6 hr at rt.

[14] = target: T5, TTR; experiment: Phase 2 study in ATTR-CM patients, serum TTR concentration (ARUP Prealbumin assay); assay type: in vivo; parameters: monitoring TTR serum concentrations in trial participants; from tissue; host or cells: serum / plasma of ATTR-CM patients; settings: WT
Description: as §4, §5, §2, §3

[15] = target: human serum albumin (HSA) (Homo sapiens, UniProt P02768); experiment: biochemical
Sequence of human serum albumin (HSA) (P02768 25-609): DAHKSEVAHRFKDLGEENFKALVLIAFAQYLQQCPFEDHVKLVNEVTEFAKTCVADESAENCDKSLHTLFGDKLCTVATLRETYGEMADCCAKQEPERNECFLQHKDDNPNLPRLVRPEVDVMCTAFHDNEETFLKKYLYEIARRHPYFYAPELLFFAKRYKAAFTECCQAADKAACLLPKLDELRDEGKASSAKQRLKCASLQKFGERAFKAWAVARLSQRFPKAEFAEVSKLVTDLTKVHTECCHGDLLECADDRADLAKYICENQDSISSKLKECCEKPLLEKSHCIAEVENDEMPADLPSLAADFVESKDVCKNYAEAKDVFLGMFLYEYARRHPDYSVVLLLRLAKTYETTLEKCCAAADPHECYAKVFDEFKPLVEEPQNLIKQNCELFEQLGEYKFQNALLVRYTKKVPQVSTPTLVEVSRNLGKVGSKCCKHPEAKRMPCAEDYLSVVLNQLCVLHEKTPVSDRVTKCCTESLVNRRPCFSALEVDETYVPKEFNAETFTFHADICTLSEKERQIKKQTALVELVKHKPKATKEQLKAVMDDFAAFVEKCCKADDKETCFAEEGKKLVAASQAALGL
Description: as §6

[16] = ATTR-CM patients, FPE vs plasma concentration

Question: For `Cc1n[nH]c(C)c1CCCOc1cc(C(=O)O)ccc1F` [AG10, 3-(3-(3,5-dimethyl-1H-pyrazol-4-yl)propoxy)-4-fluorobenzoic acid], which “TTR occupancy at the steady state trough” value ([1]; 50, 100, 200 mg/kg/d oral, day 7 pre-dose) is on record?
Answer: 81-94%

Question: What about the “TTR occupancy at steady state Cmax” value ([1]; all AG10 treated groups, day 7 post-dose (1 hr)) of the same compound?
Answer: > 97%

Question: And the “stabilization of TTR at peak concentrations (FPE assay)” value [2]?
Answer: complete stabilization

Question: And the “target engagement by day 14 (fluorescence probe assay)” value ([3]; 400 mg b.i.d. and 800 mg b.i.d., trough and peak time points)?
Answer: near full target engagement

Question: What about the “blood plasma concentration at which full target engagement occurs” value [3, 16] of the same compound?
Answer: about 7.5 μM

Question: What about the “blood plasma concentration at which significant target engagement occurs” value [3, 16] of the same compound?
Answer: ~5 µM

Question: And the “target engagement at day 14 (FPE)” value [4]?
Answer: near complete target engagement

Question: What about the tolerability [5] of the same compound?
Answer: well tolerated

Question: What about the pKa [6] of the same compound?
Answer: 4.13

Question: And the “binding to TTR in serum (FPE assay)” value ([7]; 5 mg/kg per oral, 3 male monkeys)?
Answer: effectively binds to TTR in monkey serum

Question: And the “TTR stabilization versus dose (FPE assay)” value ([7]; orally administered)?
Answer: stabilized TTR in a dose dependent manner

Question: What about the ΔH [8] of the same compound?
Answer: -13.60 kcal/mol and -13.6 kcal/mol

Question: And the “circulating trough concentration that is a suitable target based on stabilization of TTR” value ([9]; Phase 1 MAD 3 (800 mg Q12h) and Phase 2 ATTR-CM patients)?
Answer: ~8 µM

Question: And the “effect of commonly used diuretics on exposure” value ([9]; furosemide or torsemide co-administration)?
Answer: do not interfere with exposure

Question: What about the clearance ([9]; healthy adult volunteers in Phase 1 vs subjects in Phase 2, patient status or diuretics (furosemide/torsemide)) of the same compound?
Answer: No difference in clearance

Question: And the volume of distribution ([9]; subjects on furosemide/torsemide compared to healthy adult volunteers)?
Answer: lower

Question: What about the “TTR stabilization at day 28 (western blot)” value [10] of the same compound?
Answer: near complete TTR stabilization

Question: What about the “Blood Serum TTR Concentration, Average Change” value [11] of the same compound?
Answer: 61%

Question: And the “Blood Serum TTR Concentration, Average Change” value ([12]; 400 mg b.i.d.)?
Answer: 51%

Question: What about the “Blood Serum TTR Concentration, Average Change (baseline to day 28)” value ([12]; 400 mg b.i.d.) of the same compound?
Answer: 36%

Question: And the “Blood Serum TTR Concentration, Average Change” value ([12]; 800 mg b.i.d.)?
Answer: 90%

Question: And the “Blood Serum TTR Concentration, Average Change (baseline to day 28)” value ([12]; 800 mg b.i.d.)?
Answer: 50%

Question: What about the “share of cohort with serum TTR concentrations within normal range (20-40 mg/dL)” value ([12]; after 28 days of treatment, each active cohort (400 mg and 800 mg b.i.d.)) of the same compound?
Answer: 100%

Question: What about the “concentration at which complete occupancy is achieved” value [13] of the same compound?
Answer: ≥ 10 µM

Question: What about the “Blood Serum TTR Concentration, Average Change” value ([14]; 400 mg b.i.d.) of the same compound?
Answer: 32%

Question: What about the “Blood Serum TTR Concentration, Average Change” value ([14]; 800 mg b.i.d.) of the same compound?
Answer: 35%

Question: And the Kd [15]?
Answer: ~8 µM

Source: US11058668B2 (EIDOS THERAPEUTICS, INC., priority 2018, dated 2021)
